One data set deals with T. gondii tachyzoites. Nature of the data set: Ultrastructural analysis through transmission electron microscopy. It counts as cell-based, Toxoplasma gondii. Conditions: 1 µM, 48 h. The protocol:
T-25 cm^2 flasks for cell culture with confluent monolayers of NHDF were infected with freshly egressed tachyzoite in a ratio of 10:1 parasite per cell for 2 h of interaction. The flasks were washed and fresh RPMI was added for another two hours. After this, the compounds were added and infected cells were treated for 48 h. The sample fixation and processing for microscopy were performed as previously described.

The test system of data set [1] is Toxoplasma gondii tachyzoites of RH strain. Nature of the data set: Forty-eight-hour antiproliferative assay. It counts as cell-based. The conditions noted are these: 48 h, 1 µM; for inhibition at 1 µM: Toxoplasma gondii, read-out: Inhibition of parasite proliferation. The protocol: NDHF cell monolayers were plated in a 24-well tissue plate containing coverslips, and after confluency was reached, cells were infected with a ratio of 5:1 parasite/host cells with freshly egressed RH strain tachyzoites for two hours. Then, cells were washed twice with phosphate-buffered saline, pH 7.4 (PBS), to remove non-invaded parasites and incubated with a complete medium for two hours more. After this time, infected cells were treated for 48 h with different concentrations of selected compounds, based on the IC50 obtained through plaque assay. At the end of the experiment, the cells were washed with PBS, stained with Bouin for 10 min, washed with 70% alcohol, and stained with solutions 2 and 3 of the Fast Panoptic kit for 60 and 10 s, respectively. Two hundred infected cells were quantified per slide using the 100× objective of a Leica DM500 optical microscope, stratifying the number of infected and non-infected cells and the amount of tachyzoite in each infected cell. The proliferation index is the ratio of the product of the total amount of tachyzoites and the percentage of infected cells by the total number of cells.

Data set [2] is described as follows: Cytotoxicity assay (MTS, 7 days). It counts as cell-based, Human. The conditions noted are these: human, NHDF cells, MTS, read-out: Cytotoxicity against NHDF (7 Days) CC50. As for the experimental part: (§1) For that, 96-well tissue plates containing NHDF cells were treated with different concentrations of compounds up to 10 µM for seven days. Control cells were incubated with 0.5% DMSO. At the end of the treatment, cell viability was then analyzed through the colorimetric method of MTS (Promega, Madison, WI, USA). […] Data were analyzed using GraphPad Prim 8.0 software. IC50 and CC50 calculations were performed by fitting the values of proliferation/viability in percentage to a non-linear curve followed by dose–response inhibition analysis through log(inhibitor) vs. normalized response.

The next data set concerns Balamuthia Mandrillaris. Further details: method as in PMID 32560115. Conditions: read-out: IC50 against Balamuthia Mandrillaris; cited from earlier work.
Data set [3] relates to Toxoplasma gondii tachyzoites of RH strain. The data set can be described thus: Plaque assay (7 days) in NHDF monolayers infected with T. gondii. The format is cell-based. Conditions: 7 days of treatment, two independent experiments. The protocol:
After NHDF reached confluency, each well was replaced with fresh medium containing one compound at a concentration of 1 µM, and then infected with 1000 newly egressed tachyzoites from RH strain [29]. Screening at 1 μM is recommended by MMV. As a control, infected cells were incubated with complete medium and 0.01% DMSO [29]. The plates were then kept in an incubator at 37 °C in a humid atmosphere with 5% CO2 for seven days. After this time, cultures were fixed with 70% ethanol and stained with crystal violet to observe the plates.
For that, 12-well plates containing a monolayer of NHDF were infected with 600 tachyzoites of the RH strain of T. gondii and treated with different concentrations for seven days. IC50s of compounds were calculated using GraphPad Prism 8.0 software.
Data were analyzed using GraphPad Prim 8.0 software. IC50 and CC50 calculations were performed by fitting the values of proliferation/viability in percentage to a non-linear curve followed by dose–response inhibition analysis through log(inhibitor) vs. normalized response.

The next data set has as its system T. gondii Me49 strain. The conditions noted are these: read-out: IC50 against T. gondii Me49 strain; cited from earlier work.
The test system of another data set is T. gondii RH strain. The conditions noted are these: read-out: IC50 against T. gondii RH strain; cited from earlier work.
The subject of another data set is NHDF cells. The data set can be described thus: Cytotoxicity assay (MTS, 7 days). The format is cell-based, Human. The protocol:
as §1

In the next data set the test system is Madurella mycetomatis. On the set-up: method as in PMID 35120131. The conditions noted are these: read-out: IC50 against Madurella mycetomatis; cited from earlier work.

Where two headings read alike, the source gives them in different places.

On to `CN1CCN(Cc2ccc(-c3cnc4[nH]cc(-c5ccc6[nH]ccc6c5)c4c3)cc2)CC1` [URMC-099-C], for which, in the data set on T. gondii tachyzoites, the “Ultrastructural alterations on tachyzoites (TEM)” value (“Ultrastructural alterations” for short) was “induced an extensive vacuolization (asterisks) in T. gondii and myelin-like bodies”. Further, the inhibition at 1 µM in [1] was more than 60%. Moreover, in data set [2] (ND = 100% viability up to 10 µM), the CC50 at 7 days was more than 10000 nM. For the same molecule, the IC50 in the data set with Balamuthia Mandrillaris is 5350 nM.

Consider `OCCC#Cc1nc(-c2ccc(F)cc2)c(-c2ccncc2)n1CCCc1ccccc1` [RWJ-67657], for which the IC50 in [3] (Toxoplasma gondii, NHDF, 168 h) is 412 ± 21.7 nM; in the data set on T. gondii Me49 strain, 800 nM; in the data set on T. gondii RH strain, 5000 nM. Besides, in the data set on T. gondii tachyzoites, the “Ultrastructural alterations” value is “induced an extensive vacuolization (asterisks) in T. gondii and myelin-like bodies”. Further, the “Inhibition of parasite proliferation” value in data set [1] was 59.5%. Moreover, the inhibition at 1 µM in [1] was more than 60%. For the same molecule, the CC50 at 7 days in data set [2] (concentrations up to 10 µM, two independent experiments) came out at 12600 nM. Moreover, the “SI (Selectivity Index, CC50 NHDF cells/IC50 T. gondii)” value in the data set on NHDF cells is on record as 31.

Regarding `Clc1cc(Cl)c2c(c1)CCc1ccccc1C2n1ccnc1` (centres unmarked) [Eberconazole], the IC50 is 724 ± 12.6 nM in data set [3] and 720 nM in the data set with Madurella mycetomatis. For the same molecule, in the data set on T. gondii tachyzoites, the “Ultrastructural alterations” value was “induced mitochondrial swelling (white arrowhead) and extensive vacuolization”. Besides, in data set [1], the “Inhibition of parasite proliferation” value was “more than 60%”. For the same molecule, the CC50 in the data set with NHDF cells (MTS, ND = 100% viability up to 10 µM, read-out: Cytotoxicity against NHDF (7 Days) CC50) is more than 10000 nM.

(Values after article PMC10747034 (Tropical Medicine and Infectious Disease, 2023).)
